Measured values from ChEMBL document CHEMBL1201862, “PubChem BioAssay data set” (2004).
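The compound was tested at five concentrations on cells cultured in 96-well plates, with a 48-hour exposure period. At the GI50, growth is halved.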 Active and inactive are the calls of the source. Cut-off read from the data, not from the text of the source: active = GI50 up to about 1.1 µM and inactive = higher.

Columns and labels:
Assay in all cases: NCI tumour cell line growth inhibition, 48 h
RXF 393 = test system: RXF 393
OVCAR-3 = test system: OVCAR-3
SW-620 = test system: SW-620
SNB-19 = test system: SNB-19
UACC-62 = test system: UACC-62
LOX IMVI = test system: LOX IMVI
RPMI-8226 = test system: RPMI-8226
HCT-116 = test system: HCT-116
TK-10 = test system: TK-10
UO-31 = test system: UO-31
SF-295 = test system: SF-295
ACHN = test system: ACHN
SN12C = test system: SN12C
CAKI-1 = test system: CAKI-1
IGROV-1 = test system: IGROV-1
UACC-257 = test system: UACC-257
COLO 205 = test system: COLO 205
MDA-MB-435 = test system: MDA-MB-435
SK-MEL-5 = test system: SK-MEL-5
OVCAR-5 = test system: OVCAR-5

Measured: GI50

OCCN(CCO)c1ncnc2[nH]cnc12
inactive: RXF 393 > 100 µM | OVCAR-3 > 100 µM | SW-620 > 100 µM | SNB-19 > 100 µM | UACC-62 > 100 µM | LOX IMVI > 100 µM | RPMI-8226 > 100 µM | HCT-116 > 100 µM | TK-10 67.1 µM | UO-31 63.4 µM | SF-295 > 100 µM | ACHN > 100 µM | SN12C > 100 µM | CAKI-1 > 100 µM | IGROV-1 > 100 µM | UACC-257 > 100 µM | COLO 205 > 100 µM | MDA-MB-435 > 100 µM | SK-MEL-5 > 100 µM | OVCAR-5 60.8 µM

O=C(c1ccc(Cl)cc1)N(C(=S)OCc1ccccn1)c1ccccc1
inactive: RXF 393 23.5 µM | OVCAR-3 52.7 µM | SW-620 66.7 µM | SNB-19 > 100 µM | UACC-62 > 100 µM | LOX IMVI 68.2 µM | RPMI-8226 40.6 µM | HCT-116 46.6 µM | TK-10 88.1 µM | UO-31 31 µM | SF-295 76.6 µM | ACHN 70.6 µM | SN12C 51.6 µM | CAKI-1 71.8 µM | IGROV-1 36.1 µM | UACC-257 82.6 µM | COLO 205 > 100 µM | MDA-MB-435 > 100 µM | SK-MEL-5 58.9 µM | OVCAR-5 73.6 µM

COc1ccc2c(c1)[n+]([O-])c(/C(C)=N/NC(N)=S)c(C)[n+]2[O-]
inactive: RXF 393 > 72.9 µM | OVCAR-3 33.9 µM | SW-620 50.4 µM | SNB-19 > 100 µM | UACC-62 44.8 µM | LOX IMVI 39.9 µM | RPMI-8226 57 µM | HCT-116 39.9 µM | TK-10 > 58.9 µM | UO-31 49.7 µM | SF-295 63.1 µM | ACHN 38.5 µM | SN12C 39.4 µM | CAKI-1 70.5 µM | IGROV-1 > 88.1 µM | UACC-257 > 60.3 µM | COLO 205 38.8 µM | MDA-MB-435 78.3 µM | SK-MEL-5 41.2 µM | OVCAR-5 > 88.5 µM

COC(=O)C1(C)OC(C)=NC1(C(=O)OC)C(=O)OC (stereo not given)
inactive: RXF 393 > 100 µM | OVCAR-3 > 100 µM | SW-620 > 100 µM | SNB-19 > 100 µM | UACC-62 > 100 µM | LOX IMVI > 100 µM | RPMI-8226 > 100 µM | HCT-116 > 100 µM | TK-10 > 100 µM | UO-31 > 100 µM | SF-295 > 100 µM | ACHN > 100 µM | SN12C > 100 µM | CAKI-1 > 100 µM | IGROV-1 > 100 µM | UACC-257 > 100 µM | COLO 205 > 100 µM | MDA-MB-435 > 100 µM | SK-MEL-5 > 100 µM | OVCAR-5 > 100 µM
